# Test results: patent US20030166583A1, “Dermal cytochrome P450 1A inhibitors and enhancers” (priority 2002, published 2003)
# Entries after “also recorded” stand apart in the source; their conditions may differ.
# What was measured:
# [1] = system: CYP1A; assay: in vitro; conditions: nude, mouse
# Text: (§1) Nude mice were sacrificed by decapitation.
# (§2) The precipitate containing the microsomes was obtained.
# [2] = system: CYP1A; assay: Liver microsomal CYP1A enzymatic activity, inhibition or enhancement; conditions: nude, mouse, liver microsomes, pH 7.8, probe 7-ethoxyresorufin
# [3] = system: liver CYP1A; assay: as above; conditions: for enhancing effect on liver CYP1A activity, in words / inhibitory effect on liver CYP1A activity, in words: at certain concentration (1, 10 or 100 μM); for liver CYP1A activity (% of control group): liver microsomes
# [4] = system: dermal CYP1A; assay: Dermal microsomal CYP1A enzymatic activity (7-ethoxyresorufin-O-deethylase), inhibition or enhancement; conditions: for inhibitory effect on dermal CYP1A activity, in words: at certain concentration (1, 10 or 100 μM); for dermal CYP1A activity (% of control group): skin microsomes, mean of at least 3 repeats; for enhancing effect on dermal CYP1A activity, in words: at certain concentrations (1, 10 or 100 μM)
# Text: as §1, §2
# [5] = pH 7.8, dermal CYP1A activity (% of control group)
# [6] = pH 7.8, inhibition of dermal CYP1A activity
SMILES,"activity at 10 min, 1 µM [2] [%]","activity at 10 min, 10 µM [2] [%]","activity at 10 min, 100 µM [2] [%]","inhibitory effect on liver CYP1A activity, in words [3]","activity at 10 min, 1 µM [1, 5] [%]","activity at 10 min, 10 µM [1, 5] [%]","activity at 10 min, 100 µM [1, 5] [%]","enhancing effect on liver CYP1A activity, in words [3]","inhibitory effect on dermal CYP1A activity, in words [4]",dermal CYP1A activity (% of control group) ([4]; compound 1 μM) [%],dermal CYP1A activity (% of control group) ([4]; compound 10 μM) [%],dermal CYP1A activity (% of control group) ([4]; compound 100 μM) [%],liver CYP1A activity (% of control group) ([3]; compound 1 μM) [%],liver CYP1A activity (% of control group) ([3]; compound 10 μM) [%],liver CYP1A activity (% of control group) ([3]; compound 100 μM) [%],also measured
O=c1cc(-c2ccccc2)oc2cc(O)c(O)c(O)c12 [Baicalein],–,–,–,–,–,–,–,enhancing effect,inhibition effects,64.73,48.84,55.82,110.67,114.18,–,inhibition of dermal CYP1A activity ([4]; compound 10 μM): about 47%
O=C(O)[C@H]1O[C@@H](Oc2cc3oc(-c4ccccc4)cc(=O)c3c(O)c2O)[C@H](O)[C@@H](O)[C@@H]1O [Baicalin],–,–,–,inhibitory effects,–,–,–,enhancing effect,inhibition effects,90.14,82.85,75.91,106.19,90.79,106.06,inhibition of dermal CYP1A activity ([4]; compound 100 μM): about 24%
C=CC(=C)CCC=C(C)C [Beta-Myrcene],82,98,100,inhibitory effects,–,–,–,enhancing effect,–,–,–,–,–,–,–,"activity at 10 min, 1 µM ([1]; pH 7.8): 101%; activity at 10 min, 10 µM ([1]; pH 7.8): 78.2%; activity at 10 min, 100 µM ([1]; pH 7.8): 73.6%; inhibition at 10 min, 100 µM ([1]; pH 7.8): ~26%"
CC12CCC(CC1)C(C)(C)O2 [Cineole],117,99.9,94.7,inhibitory effects,199,130,96.4,enhancing effect,–,–,–,–,–,–,–,"inhibition at 10 min, 100 µM [1, 6]: ~5%"
CC(C)[C@@H](C)/C=C/[C@@H](C)[C@H]1CC[C@H]2C3=CC=C4C[C@@H](O)CC[C@]4(C)[C@H]3CC[C@]12C [Ergosterol],103,104,97.7,inhibitory effects,–,–,–,enhancing effect,–,–,–,–,–,–,–,"activity at 10 min, 10 µM ([1]; pH 7.8): 57.3%; activity at 10 min, 100 µM ([1]; pH 7.8): 52.2%"
COc1ccc([C@@H]2CC(=O)c3c(O)cc(O[C@@H]4O[C@H](CO[C@@H]5O[C@@H](C)[C@H](O)[C@@H](O)[C@H]5O)[C@@H](O)[C@H](O)[C@H]4O)cc3O2)cc1O [Hesperidin],–,–,–,inhibitory effects,–,–,–,enhancing effect,inhibition effects,62.61,52.72,57.75,99.65,87.38,102.94,inhibition of dermal CYP1A activity ([4]; compound 10 μM): about 47%
O=c1cc(-c2ccc(O)c(O)c2)oc2cc(O[C@@H]3O[C@H](CO)[C@@H](O)[C@H](O)[C@H]3O)cc(O)c12 [Luteolin-7-glucoside],–,–,–,–,–,–,–,enhancing effect,inhibition effects,105.07,88.05,2.53,109.79,119.53,123.78,"inhibitory effect on dermal CYP1A activity, in words ([4]; listed as luteolin-7-glycoside): strongest inhibitory effect; also recorded: most effective inhibitors; enhancing effect on dermal CYP1A activity, in words [4]: enhancing effects; inhibition of dermal CYP1A activity ([4]; compound 100 μM, 100 µM): about 97%"
O=C1C[C@@H](c2ccc(O)cc2)Oc2cc(O)cc(O)c21 [Narigenin],–,–,–,inhibitory effects,–,–,–,enhancing effect,inhibition effects,29.41,34.90,17.26,116.45,107.17,41.64,inhibition of dermal CYP1A activity ([4]; compound 100 μM): about 83%
C[C@@H]1O[C@@H](O[C@H]2[C@H](Oc3cc(O)c4c(c3)O[C@H](c3ccc(O)cc3)CC4=O)O[C@H](CO)[C@@H](O)[C@@H]2O)[C@H](O)[C@H](O)[C@H]1O [Narigin],–,–,–,–,–,–,–,enhancing effect; also recorded: most enhancing effect,inhibition effects,149.99,103.30,77.31,138.88,119.79,120.55,"enhancing effect on dermal CYP1A activity, in words [4]: enhancing effects; also recorded: strongest enhancing effect; enhancement of dermal CYP1A activity ([4]; compound 1 μM): about 50%; inhibition of dermal CYP1A activity ([4]; compound 100 μM): about 23%; enhancing effect on liver CYP1A activity ([3]; compound 100 μM): about 21%"

# Further lines, with some results ahead:
"activity at 10 min, 1 µM [2] [%]","activity at 10 min, 10 µM [2] [%]","activity at 10 min, 100 µM [2] [%]","inhibitory effect on liver CYP1A activity, in words [3]","activity at 10 min, 1 µM [1, 5] [%]","activity at 10 min, 10 µM [1, 5] [%]","activity at 10 min, 100 µM [1, 5] [%]",SMILES,"enhancing effect on liver CYP1A activity, in words [3]","inhibitory effect on dermal CYP1A activity, in words [4]",dermal CYP1A activity (% of control group) ([4]; compound 1 μM) [%],dermal CYP1A activity (% of control group) ([4]; compound 10 μM) [%],dermal CYP1A activity (% of control group) ([4]; compound 100 μM) [%],liver CYP1A activity (% of control group) ([3]; compound 1 μM) [%],liver CYP1A activity (% of control group) ([3]; compound 10 μM) [%],liver CYP1A activity (% of control group) ([3]; compound 100 μM) [%],also measured
151,143,157,–,–,–,–,"CC(=O)OCCCc1ccccc1 [3-Phenyl propyl acetate, 3-phenylpropyl acetate]",enhancing effect; also recorded: most enhancing effect,–,–,–,–,–,–,–,"activity at 10 min, 1 µM ([1]; pH 7.8): 28.3%; activity at 10 min, 10 µM ([1]; pH 7.8): 89.4%; activity at 10 min, 100 µM ([1]; pH 7.8): 85%; inhibition at 10 min, 1 µM ([1]; pH 7.8): ~72%; enhancing effect on liver CYP1A activity, in words ([3]; listed as 3-phenylpryl acetate): enhancing effect"
109,112,135,–,77.5,71.7,77.2,O=c1c(-c2ccc(O)cc2)coc2cc(O)ccc12 [Daidzein],–,–,–,–,–,–,–,–,"inhibition at 10 min, 10 µM [1, 6]: ~28%"
108,97.3,43.8,inhibitory effects,–,–,–,COc1ccc(-c2cc(=O)c3c(O)cc(O[C@@H]4O[C@H](CO[C@@H]5O[C@@H](C)[C@H](O)[C@@H](O)[C@H]5O)[C@@H](O)[C@H](O)[C@H]4O)cc3o2)cc1O [Diosmin],enhancing effect,–,–,–,–,–,–,–,"activity at 10 min, 1 µM ([1]; pH 7.8): 64.3%; activity at 10 min, 10 µM ([1]; pH 7.8): 54.3%; activity at 10 min, 100 µM ([1]; pH 7.8): 32.9%; inhibition at 10 min, 100 µM ([1]; pH 7.8): ~67%"
121,144,145,–,67,109,85.9,COc1ccc(-c2coc3cc(O)ccc3c2=O)cc1 [Formononetin],enhancing effect; also recorded: most enhancing effect,–,–,–,–,–,–,–,"inhibition at 10 min, 1 µM [1, 6]: ~33%"
–,123,105,–,102,107,88.2,O=C(O)c1cc(O)c(O)c(O)c1 [Gallic acid],–,–,–,–,–,–,–,–,"inhibition at 10 min, 100 µM [1, 6]: ~12%"
115,104,33.4,–,59.1,19.4,10.4,O=c1cc(-c2ccc(O)c(O)c2)oc2cc(O)cc(O)c12 [Luteolin],–,–,–,–,–,–,–,–,"inhibition at 10 min, 100 µM [1, 6]: ~90%"
–,–,121,–,–,–,–,O=C(O)/C=C/c1ccc(O)cc1O [Umbellic acid],enhancing effect,–,–,–,–,–,–,–,–
